Measurements: US6596749B2, “Aminotriazole compounds” (Les Laboratoires Servier, priority 1999, dated 2003)
pIC50: −log10 of the molar value.

What was measured:
obese ob/ob mouse = assay: Effect on food intake and weight development in the obese mouse; assay type: in vivo; settings: female ob/ob C57B1/6J mice; for Food intake % variation (D1), Treated: D1, compared with the basal food intake; for Body weight % variation (D4/D0): between first and last day of treatment
Protocol: The compounds of the invention were administered in vivo to the obese ob/ob mouse in order to evaluate their influence on food intake and weight development. The animals used are 13- to 18-week-old female ob/ob C57B1/6J mice. They are divided into groups each comprising 4 animals per cage, the cages being fitted with a grating floor, and the mice having free access to food.
Before the experiments, the animals are conditioned for a period ranging from 2 to 3 weeks until their food consumption has stabilised. The experiments may be summarised as follows:
The test compounds are dissolved, immediately before use, in water, 0.9% sodium chloride, propylene glycol or dimethyl sulphoxide, depending upon their solubility, and are administered intraperitoneally (IP), in a volume of 2.5 ml/kg.
The parameters measured are the food intake and the body weight.
The results are expressed as: […]
percentage variation in food intake under treatment compared with the basal food intake;
percentage variation in body weight between the first and last day of treatment.

Y5 receptor = biological target: T1, Y5 receptor (Homo sapiens, UniProt Q15761); assay: In vitro affinity for NPY receptors, [125I]-PYY competition binding, Y5 receptor; settings: radioligand [125I]-PYY 15 to 65 pM
T1 sequence (Q15761 1-445): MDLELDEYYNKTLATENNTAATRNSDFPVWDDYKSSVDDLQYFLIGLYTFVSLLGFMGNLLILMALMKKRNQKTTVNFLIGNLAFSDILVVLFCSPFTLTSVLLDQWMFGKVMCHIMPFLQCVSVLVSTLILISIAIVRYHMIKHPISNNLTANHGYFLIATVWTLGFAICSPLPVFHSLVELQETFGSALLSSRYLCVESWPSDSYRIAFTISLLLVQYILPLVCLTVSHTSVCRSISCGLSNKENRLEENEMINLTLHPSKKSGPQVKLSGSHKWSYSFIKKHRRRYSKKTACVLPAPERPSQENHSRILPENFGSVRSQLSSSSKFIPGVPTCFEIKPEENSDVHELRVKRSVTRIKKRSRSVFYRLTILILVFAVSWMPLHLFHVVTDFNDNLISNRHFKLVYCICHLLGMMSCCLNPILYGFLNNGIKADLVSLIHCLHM
Protocol: The capacity of the compounds of the invention to bind to NPY receptors was measured on various cell lines, each expressing one of the receptor sub-types studied. Competition binding experiments were carried out using the peptide [^125I]-PYY as radioligand at concentrations ranging from 15 to 65 pM. The non-specific fraction is measured in the presence of a concentration of 1 μM NPY. The cells are incubated for a period ranging from 1 to 2 hours depending upon the lines, and the radioactivity is collected after filtration over a GF/C filter treated with 0.1% PEI, before being measured.

Structure (SMILES)	Food intake % variation (D1), Treated (obese ob/ob mouse; 1 mg/kg IP twice daily)	Body weight % variation (D4/D0) (obese ob/ob mouse; 1 mg/kg IP twice daily)	pIC50 (Y5 receptor)	Food intake % variation (D1), Treated (obese ob/ob mouse; 5 mg/kg IP twice daily)	Body weight % variation (D4/D0) (obese ob/ob mouse; 5 mg/kg IP twice daily)
O=C(NNS(=O)(=O)c1ccccc1)c1ccc(Nc2nc(-c3ccccc3)n(-c3cccc(C(F)(F)F)c3)n2)cc1 [Example 1, N′-[4-({5-Phenyl-1-[3-(trifluoromethyl)phenyl]-1H-1,2,4-triazol-3-yl}-amino)benzoyl]benzenesulphonohydrazide]	−45%	−6.4%	7.10		
COc1ccc(S(=O)(=O)NNC(=O)c2ccc(Nc3nc(-c4ccccc4)n(-c4cccc(C(F)(F)F)c4)n3)cc2)cc1 [Example 6]			8.15	−34%	−11.2%
